According to publication PMC5020642, “Structural insight into the arginine-binding specificity of CASTOR1 in amino acid-dependent mTORC1 signaling” (Cell Discovery, 2016):
Changes are numbered by the printed parent chain.

T1: CASTOR1 (Homo sapiens, UniProt Q8WTX7)
T1 construct: full-length, residues 1-329, C-terminal His6 tag (pET-28a), E. coli BL21(DE3), homodimer in solution; Ni-NTA and gel filtration
T1 sequence (Q8WTX7 1-329): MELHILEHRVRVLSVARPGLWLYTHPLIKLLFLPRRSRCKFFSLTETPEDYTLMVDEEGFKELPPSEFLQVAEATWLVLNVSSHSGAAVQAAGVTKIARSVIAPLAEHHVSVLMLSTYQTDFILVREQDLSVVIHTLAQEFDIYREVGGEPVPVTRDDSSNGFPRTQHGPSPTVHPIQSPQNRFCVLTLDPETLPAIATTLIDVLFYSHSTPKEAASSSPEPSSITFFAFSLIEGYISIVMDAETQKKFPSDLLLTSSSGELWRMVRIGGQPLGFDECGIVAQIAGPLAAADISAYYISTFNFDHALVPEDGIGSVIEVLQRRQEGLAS

T2: CASTOR1 (Homo sapiens, UniProt Q8WTX7, V281A)
T2 construct: full-length, residues 1-329, C-terminal His6 tag (pET-28a), E. coli BL21(DE3), homodimer in solution; Ni-NTA and gel filtration
T2 sequence (Q8WTX7 1-329 V281A): T1 sequence (Q8WTX7 1-329) with V281A

T3: CASTOR1 (Homo sapiens, UniProt Q8WTX7, F303A)
T3 construct: full-length, residues 1-329, C-terminal His6 tag (pET-28a), E. coli BL21(DE3), homodimer in solution; Ni-NTA and gel filtration
T3 sequence (Q8WTX7 1-329 F303A): T1 sequence (Q8WTX7 1-329) with F303A

T4: CASTOR1 (Homo sapiens, UniProt Q8WTX7, L113A)
T4 construct: full-length, residues 1-329, C-terminal His6 tag (pET-28a), E. coli BL21(DE3), homodimer in solution; Ni-NTA and gel filtration
T4 sequence (Q8WTX7 1-329 L113A): T1 sequence (Q8WTX7 1-329) with L113A

B1: full-length human CASTOR1 (residues 1-329), His6-tagged (natural protein, UniProt Q8WTX7 1-329, looked up)
chain: T1 sequence (Q8WTX7 1-329)
notes: CASTOR1, human, full length, residues 1-329; Cloned in pET-28a (NcoI/XhoI); Se-Met substituted protein was used for phasing; No removal of the His6 tag is described; also called recombinant CASTOR1; source: E. coli BL21 (DE3), purified (Ni-NTA, gel filtration on Superdex 200)
B2: CASTOR2, His6-SUMO fusion (natural protein, human, UniProt A6NHX0 1-329, looked up)
chain: MELHILEHRLQVASVAKESIPLFTYGLIKLAFLSSKTRCKFFSLTETPEDYTIIVDEEGFLELPSSEHLSVADATWLALNVVSGGGSFSSSQPIGVTKIAKSVIAPLADQNISVFMLSTYQTDFILVRERDLPFVTHTLSSEFTILRVVNGETVAAENLGITNGFVKPKLVQRPVIHPLSSPSNRFCVTSLDPDTLPAVATLLMDVMFYSNGVKDPMATGDDCGHIRFFSFSLIEGYISLVMDVQTQQRFPSNLLFTSASGELWKMVRIGGQPLGFDECGIVAQISEPLAAADIPAYYISTFKFDHALVPEENINGVISALKVSQAEKH
notes: CASTOR2, human; Homodimer on its own; in the co-expressed complex with m3 it stands once (heterodimer); Purification of the co-expressed complex is said to be the same as for CASTOR1 (Ni-NTA), so the tag would be the handle there; also called His6-SUMO fused castor2; source: E. coli BL21 (DE3), purified (Ni-NTA, gel filtration); also co-expressed with untagged CASTOR1 in E. coli BL21 (DE3)

What was measured:
CASTOR1 [1] = molecular target: T1, CASTOR1; assay: isothermal titration calorimetry; type: binding
A^2A^1A^2A^2 = molecular target: T5, A^2A^1A^2A^2; assay: isothermal titration calorimetry; type: binding, Homo sapiens; details: 20 °C; 1 mM ligand titrated into 70 μM protein; single-site model
T5 construct: gene CASTOR2; one polypeptide: CASTOR2 with ACT2 replaced by ACT2 of CASTOR1 (ACT2 of CASTOR1 = residues 1-5 and 76-147); E. coli
Text: isothermal titration calorimetry on A^2A^1A^2A^2

A^2A^1A^2A^1 = molecular target: T6, A^2A^1A^2A^1; assay: isothermal titration calorimetry; type: binding, Homo sapiens; details: 20 °C; 1 mM ligand titrated into 70 μM protein; single-site model
T6 construct: gene CASTOR2; one polypeptide: CASTOR2 with ACT2 and ACT4 replaced by those of CASTOR1 (CASTOR1 residues 1-5, 76-147, 176-179, 263-329); E. coli
Text: isothermal titration calorimetry on A^2A^1A^2A^1

CASTOR1 [2] = molecular target: T2, CASTOR1; assay: isothermal titration calorimetry; type: binding
Text: (§1) isothermal titration calorimetry on CASTOR1

CASTOR1 [3] = molecular target: T3, CASTOR1; assay: isothermal titration calorimetry; type: binding
Text: as §1

CASTOR1 [4] = molecular target: T4, CASTOR1; assay: isothermal titration calorimetry; type: binding
Text: as §1

A^2A^2A^2A^1 = molecular target: T7, A^2A^2A^2A^1; assay: isothermal titration calorimetry; type: binding, Homo sapiens; details: 20 °C; 1 mM ligand titrated into 70 μM protein; single-site model
T7 construct: gene CASTOR2; one polypeptide: CASTOR2 with ACT4 replaced by ACT4 of CASTOR1 (ACT4 of CASTOR1 = residues 176-179 and 263-329); E. coli
Text: isothermal titration calorimetry on A^2A^2A^2A^1

[5] = molecular target: the molecule itself; assay: SEC + other: dynamic light scattering; purified recombinant proteins in solution; CASTOR1 with and without arginine (dimerization independent of arginine); the CASTOR1-CASTOR2 complex analysed after co-purification

Row | Molecule | Kd (CASTOR1 [1]) | Kd (A^2A^1A^2A^2) | Kd (A^2A^1A^2A^1) | Kd (CASTOR1 [2]) | Kd (CASTOR1 [3]) | Kd (CASTOR1 [4]) | Kd (A^2A^2A^2A^1) | stoichiometry N [5]
1 | N=C(N)NCCC[C@H](N)C(=O)O [arginine] | 5.5 ± 0.4 µM | 55 ± 11.5 µM | 8.6 ± 1.9 µM | 25.6 ± 4.3 µM | 17.6 ± 1.9 µM | 160 ± 23.6 µM | 40.2 ± 8.4 µM | 
2 | B1 |  |  |  |  |  |  |  | 2
3 | B2 |  |  |  |  |  |  |  | 2
